Measurements: US20250041307A1, “Uses of Bicyclic Compounds for the Treatment of Diseases” (Athira Pharma, Inc., priority 2021, published 2025)

What was measured:
[1] = In vitro stability in human plasma; format: in vitro ADME; conditions: 5 μM, 37° C.
Procedure: (§1) Bioavailability can be estimated by compound stability when exposed to conditions in the body. As an initial assessment of stability properties in a variety of conditions present in animals, exemplary compounds were tested for stability in a battery of simulated body compartments. Compounds were tested for stability in the following solutions: simulated gastric fluid (SGF: 34.2 mM NaCl, pH 1.2), simulated gastric fluid with the digestive enzyme pepsin (SGF+Enzyme: SGF with 3.2 mg/ml pepsin), simulated intestinal fluid with the mixture of enzymes in porcine pancreatin (SIF+Enzyme: 28.7 mM NaH2PO4, 105.7 mM NaCl, pH 6.8, 10 mg/ml pancreatin), rat plasma, and human plasma.
(§2) Test compounds were incubated at a final concentration of 5 μM in the above solutions at 37° C. with samples removed at the following time points: 0, 1, 2, and 4 hours. Reactions were stopped and prepared for quantification by addition of excess quench solution containing an internal standard (acetonitrile, 200 ng/mL bucetin). Test compound and internal standard in each sample was quantified by LC-MS/MS, and after internal normalization to bucetin, test compound concentration was expressed as a percentage of concentration at the 0-hour time point. Stability in the relevant test solution was then determined by the percent remaining at the 4-hour time point.

[2] = In vitro stability in simulated gastric and intestinal fluids; format: in vitro ADME; conditions: 37° C.; for SGF, compound remaining after 4 hours: simulated gastric fluid pH 1.2, 5 μM; for SGF + Enz, compound remaining after 4 hours: simulated gastric fluid with 3.2 mg/ml pepsin; for SGF + Enz, compound remaining after 4 hours / SIF, compound remaining after 4 hours: 5 μM; for SIF, compound remaining after 4 hours: simulated intestinal fluid pH 6.8 with 10 mg/ml pancreatin
Procedure: as §1, §2

[3] = In vitro stability in rat plasma; format: in vitro ADME; conditions: 5 μM, 37° C.
Procedure: as §1, §2

[4] = tested on: scopolamine-induced cognitive impairment; test: Scopolamine-induced cognitive impairment, T-maze spontaneous alternation task; format: in vivo, CD-1 mice; parameters: key to Significance (compared to scopolamine only): * = p < 0.05; ** = p < 0.01; ns = not significant; conditions: mice; for Spontaneous alternations %: scopolamine 0.89 mg/kg; for Significance (compared to scopolamine only): spontaneous alternations
Source text: Mild cognitive impairment can be assessed in rodent models via delivery of various compounds that interfere with normal neurotransmitter signaling. Scopolamine is a compound that is well-known to antagonize muscarinic acetylcholine receptors, nicotinic receptors, as well as glutamatergic receptors such as NMDA receptors. Thus, delivery of scopolamine results in cognitive impairment, which can be assessed in a variety of cognitive tasks. Positive modulation of the HGF/MET system can promote NMDA receptor activation and results in pro-cognitive effects. Two test compounds, Compound 1a and Compound 5a, were evaluated for their ability to protect against scopolamine-induced cognitive impairment.
In this study, mild cognitive impairment was modeled in otherwise healthy male CD-1 mice (4-5 weeks old at study start) by acute delivery of 0.89 mg/kg scopolamine (dissolved in saline). Test compounds were administered via oral gavage 0.5 hours prior to scopolamine exposure, and cognitive performance was assessed in the T-maze spontaneous alternation task 0.5 hours after scopolamine exposure (1 hour following test compound exposure). The experimental protocol consisted of one single session, which started with 1 “forced-choice” trial, followed by 14 “free-choice” trials. In the first “forced-choice” trial, the animal was confined 5 seconds in the start arm and was then released while either the left or right goal arm was blocked by a horizontal door. After the mouse entered the open goal arm and returned to the start position, the left or right goal door was opened, and the animal was allowed to choose freely between the left and right goal arm (“free choice trials”). The animal was considered to have entered into an arm when it placed its four paws in the arm. Normal animals will choose to explore the previously-unexplored arm, which is recorded as a spontaneous alternation. […] The session was terminated, and the animal was removed from the maze as soon as 14 free-choice trials had been performed or 10 min had elapsed, whichever event occurred first.
This percentage was defined as entry into a different goal arm of the T maze over successive trials (e.g., left-right-left-right) and was calculated using the formula: (% alternations=Number of Alternations/14*100). Both compounds attenuated the degree of scopolamine-induced cognitive impairment, as indicated by increased percent of spontaneous alternations compared to scopolamine-only controls. Statistical analysis was accomplished via 1-way ANOVA with Dunnet's multiple comparisons post-test.

[5] = In vivo tissue distribution; parameters: species or system Sprague-dawley rats; conditions: rat, 10 minutes post administration
Procedure: The rate of distribution to target tissues is an important feature of therapeutic molecules. Tissue distribution of exemplary compounds was performed in mixed-sex Sprague-dawley rats. Test compounds were delivered via tail vein injection (IV) and tissues were collected at Tmax (10 minutes post administration). Animals were deeply anesthetized with isoflurane and whole blood was collected from the right atrium and processed by centrifugation to produce plasma. Animals were then fully perfused with PBS administered to the left ventricle to prevent blood contamination of tissues.
Tissues were collected and homogenized, and compound content in the target tissue was quantified by LC-MS/MS. Tissue distribution rates were determined by dividing the tissue concentration of compound by the plasma concentration and multiplying by 100.

SMILES | Human Plasma, compound remaining after 4 hours [1] | SGF, compound remaining after 4 hours [2] | SGF + Enz, compound remaining after 4 hours [2] | SIF, compound remaining after 4 hours [2] | Rat Plasma, compound remaining after 4 hours [3] | Tissue Distribution (% Plasma exposure at 10 min post IV dose) Brain [5] | Tissue Distribution (% Plasma exposure at 10 min post IV dose) Cerebellum [5] | Tissue Distribution (% Plasma exposure at 10 min post IV dose) Cortex [5] | Tissue Distribution (% Plasma exposure at 10 min post IV dose) Hippocampus [5] | Tissue Distribution (% Plasma exposure at 10 min post IV dose) Sciatic Nerve [5] | other results
CCC(C)CN1CC2N(C(=O)c3ccc(C(F)(F)F)cc3)CCC(=O)N2[C@@H](C)C1=O (stereo partly shown) [Compound 1a] | ++ (++ indicates 40-79% compound remaining after 4 hours) | ++++ (++++ indicates 100% compound remaining after 4 hours) | ++++ (++++ indicates 100% compound remaining after 4 hours) | ++++ (++++ indicates 100% compound remaining after 4 hours) | ++ (++ indicates 40-79% compound remaining after 4 hours) | ++ (++ indicates distribution between 5 and 39%) | ++ (++ indicates distribution between 5 and 39%) | ++ (++ indicates distribution between 5 and 39%) | ++ (++ indicates distribution between 5 and 39%) |  | Spontaneous alternations % ([4]; 0.5 mg/kg via PO): 52%; Significance (compared to scopolamine only) ([4]; 0.5 mg/kg via PO): ** (** = p < 0.01); Spontaneous alternations % ([4]; 2 mg/kg via PO): 55%; Significance (compared to scopolamine only) ([4]; 2 mg/kg via PO): ** (** = p < 0.01); Spontaneous alternations % ([4]; 8 mg/kg via PO): 47%; Significance (compared to scopolamine only) ([4]; 8 mg/kg via PO): ns; Spontaneous alternations % ([4]; 16 mg/kg via PO): 51%; Significance (compared to scopolamine only) ([4]; 16 mg/kg via PO): * (* = p < 0.05); Spontaneous alternations % ([4]; 32 mg/kg via PO): 55%; Significance (compared to scopolamine only) ([4]; 32 mg/kg via PO): ** (** = p < 0.01)
CCC(C)CN1CC2N(Cc3ccc(C(F)(F)F)cc3)CCC(=O)N2[C@@H](C)C1=O (stereo partly shown) [Compound 5a] | ++ (++ indicates 40-79% compound remaining after 4 hours) | +++ (+++ indicates 80-99% compound remaining after 4 hours) | + (+ indicates 20-39% compound remaining after 4 hours) | +++ (+++ indicates 80-99% compound remaining after 4 hours) | ++ (++ indicates 40-79% compound remaining after 4 hours) | ++++ (++++ indicates distribution above 70%) | ++++ (++++ indicates distribution above 70%) | ++++ (++++ indicates distribution above 70%) | ++++ (++++ indicates distribution above 70%) |  | Spontaneous alternations % ([4]; 1.25 mg/kg via PO): 51%; Significance (compared to scopolamine only) ([4]; 1.25 mg/kg via PO): * (* = p < 0.05); Spontaneous alternations % ([4]; 2.5 mg/kg via PO): 57%; Significance (compared to scopolamine only) ([4]; 2.5 mg/kg via PO): ** (** = p < 0.01); Spontaneous alternations % ([4]; 5 mg/kg via PO): 52%; Significance (compared to scopolamine only) ([4]; 5 mg/kg via PO): * (* = p < 0.05); Spontaneous alternations % ([4]; 10 mg/kg via PO): 55%; Significance (compared to scopolamine only) ([4]; 10 mg/kg via PO): ** (** = p < 0.01); Spontaneous alternations % ([4]; 20 mg/kg via PO): 52%; Significance (compared to scopolamine only) ([4]; 20 mg/kg via PO): * (* = p < 0.05)
CC1C(=O)N(CCC2CCC2)CC2N(C(=O)c3ccc(C(F)(F)F)cc3)CCC(=O)N12 (stereo not shown) [Compound 20] | +++ (+++ indicates 80-99% compound remaining after 4 hours) | +++ (+++ indicates 80-99% compound remaining after 4 hours) | +++ (+++ indicates 80-99% compound remaining after 4 hours) | +++ (+++ indicates 80-99% compound remaining after 4 hours) | ++ (++ indicates 40-79% compound remaining after 4 hours) | ++++ (++++ indicates distribution above 70%) | ++++ (++++ indicates distribution above 70%) | ++++ (++++ indicates distribution above 70%) | +++ (+++ indicates distribution between 40 and 69%) | ++++ (++++ indicates distribution above 70%) | 
C=CCCN1CC2N(C(=O)c3ccc(C(F)(F)F)cc3)CCC(=O)N2C(C)C1=O (stereo not shown) [Compound 22] | +++ (+++ indicates 80-99% compound remaining after 4 hours) | +++ (+++ indicates 80-99% compound remaining after 4 hours) | +++ (+++ indicates 80-99% compound remaining after 4 hours) | +++ (+++ indicates 80-99% compound remaining after 4 hours) | +++ (+++ indicates 80-99% compound remaining after 4 hours) | ++ (++ indicates distribution between 5 and 39%) | ++ (++ indicates distribution between 5 and 39%) | ++ (++ indicates distribution between 5 and 39%) | ++ (++ indicates distribution between 5 and 39%) | +++ (+++ indicates distribution between 40 and 69%) | 
